≈ marks a conversion by molar mass, not a printed value.

In general, IC50 refers to the midpoint of a concentration-inhibition curve. Low values mean greater potency, high ones weaker potency. A word on the CC50: it is the concentration giving 50% cytotoxicity. High values mean lower toxicity to the cells, low ones greater toxicity to the cells.

Experiment [1] relates to Hs68. The experiment in a line: Anti-HCMV activity in Hs 68 cell line by plaque reduction assay. It counts as functional, cell-based. To be noted: Homo sapiens. (Plaques are areas of infected cells; plaque reduction assays count them against a control.)
For experiment [2], the system named is Hs68. Nature of the experiment: Cytotoxicity in Hs 68 cell line by inhibition of cell proliferation. As to conditions: Homo sapiens. It counts as functional.

For the compound `O=C(O)c1cc2ccncc2cn1`, in the experiment on Hs68 [1], the IC50 was 0.5 µg/mL (≈ 2.87 µM). Turning to `COc1ccccc1CNC(=O)c1ccc2ccccc2n1`, in the experiment on Hs68 [1], the IC50 was above 25 µg/mL. In the experiment on Hs68 [2], the CC50 was 10 µg/mL (≈ 34.2 µM).

For the origin of these results see ChEMBL document CHEMBL1131965, “Isoquinoline-6-carboxamides as potent and selective anti-human cytomegalovirus (HCMV) inhibitors” (Bioorg Med Chem Lett, 1999).
